# Laboratory results reported in article PMC4686831, “Identification of an allosteric binding site for RORγt inhibition” (Nature Communications, 2015).
# Experiments:
# RORγt-LBD [1] = molecular target: T1, RORγt-LBD (Homo sapiens, UniProt P51449); assay: RORγt-LBD SRC-1 cofactor FRET assay; assay type: biochemical
# T1 construct: leader […]; made in house; host or cells: BL21(DE3) E. coli
# T1 sequence (P51449 259-518): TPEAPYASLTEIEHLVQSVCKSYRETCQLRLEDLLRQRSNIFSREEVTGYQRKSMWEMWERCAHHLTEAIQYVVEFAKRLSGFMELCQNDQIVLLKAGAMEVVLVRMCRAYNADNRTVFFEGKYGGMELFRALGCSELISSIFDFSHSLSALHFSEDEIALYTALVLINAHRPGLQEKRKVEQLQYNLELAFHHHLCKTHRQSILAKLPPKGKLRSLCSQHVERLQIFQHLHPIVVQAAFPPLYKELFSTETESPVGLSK
# Procedure: The potency of small-molecule RORγt ligands was then assessed by monitoring their effect on the association of a LXXLL-motif-containing SRC-1 peptide. Compound (10 mM dimethylsulphoxide (DMSO) stock) was serially diluted in threefold steps using an Agilent Bravo liquid handler. […] Compounds were allowed to incubate with receptor for 15 min and then 5 μl of peptide in detection buffer or detection buffer alone were added. Detection buffer (5 × ) consists of 50 mM Tris-HCL pH 7.0, 50 mM potassium chloride, 1 mM EDTA, 0.1% delipidated bovine serum albumin, 1 mM DTT and 20 nM streptavidin-APC (PerkinElmer). […] The plate was then incubated overnight at 4 °C. The following morning the plate was warmed to room temperature and read using an Envision plate reader (PerkinElmer). […] The per cent activity of each dilution was determined as the ratio of background corrected signal to the background corrected signal of wells receiving only DMSO. IC50 values were determined by fitting per cent activity data to a four-parameter logistic dose–response equation in GraphPad Prism (GraphPad Software).
# RORγt-LBD [2] = molecular target: T1, RORγt-LBD; assay: RORγt-LBD AlexaFluor-647-labelled MRL-871 competitive binding assay; details: 100 nM probe; mean±s.d.; read-out: MRL-871 AlexaFluor Probe Competition IC50
# Procedure: The plate was then incubated for 15 min at room temperature. […] TR-FRET intensity in the presence of RORγt was corrected for background and the KD determined using the One-site specific binding equation in Graph Pad Prism. […] IC50 values were determined by fitting per cent activity data to a four-parameter logistic dose–response equation in GraphPad Prism.
# RORγt-GAL4 = molecular target: T2, RORγt-GAL4 (Homo sapiens, UniProt P51449); assay: Chimeric RORγt-GAL4 luciferase reporter assay in HEK293T cells; assay type: cell-based; details: mean±s.d.
# T2 construct: expressed in transfected cells; host or cells: HEK293T
# Procedure: This vector, along with the GAL4 UAS-luciferase reporter vector pGL4.31 (Promega), was used to transfect HEK293T cells. […] Following transfection, cells were transferred to one T75 flask and incubated overnight at 37 °C and 5% CO2. […] Cells were collected and resuspended at 0.8 × 10^6 cells per ml in DMEM high-glucose media with 10% FBS. To each well of the plate was added 25 μl of cell suspension and the cells incubated overnight at 37 °C and 5% CO2. After 20–22 h, the plates were brought to room temperature and 25 μl of Steady-Glo luciferase reagent (Promega) was added to each well. The luminescent signal was measured on an Envision plate reader.
# [3] = system: IL-17 production in human PBMCs; assay: PBMC Th17 polarization and IL-17 production assay; assay type: cell-based; details: 96 h, 4 days, mean±s.d., read-out: hPBMC IL17A IC50
# Procedure: Test compounds were prepared as 10 mM stocks in DMSO and serially diluted 1:3 to provide an eight-concentration titration. […] Stimulatory cytokines were added to final concentrations of 25 ng ml^−1 IL-1B, 10 ng ml^−1 IL-23, 0.5 ng ml^−1 IL-2 and 10 ng ml^−1 IL-6 (all cytokines from R&D Systems). In addition, T-Activator CD3/28 Dynabeads (Invitrogen) were added to a concentration of 100,000 beads per ml. The stimulated cells were immediately dispensed into the assay plate containing serially diluted compound at a volume of 200 μl cells per well. Cell plates were then incubated at 37 °C and 5% CO2 for 4 days. Culture media (100 μl) was collected from each well and IL-17 expression was measured by enzyme-linked immunosorbent assay (R&D Systems) according to the manufacturer's instructions. Cell viability was assessed by the addition of 100 μl of CellTiter-Glo (Promega) to each well of the cell assay plate followed by luminescence detection on an Envision plate reader (PerkinElmer).
# T2 sequence (P51449 97-518): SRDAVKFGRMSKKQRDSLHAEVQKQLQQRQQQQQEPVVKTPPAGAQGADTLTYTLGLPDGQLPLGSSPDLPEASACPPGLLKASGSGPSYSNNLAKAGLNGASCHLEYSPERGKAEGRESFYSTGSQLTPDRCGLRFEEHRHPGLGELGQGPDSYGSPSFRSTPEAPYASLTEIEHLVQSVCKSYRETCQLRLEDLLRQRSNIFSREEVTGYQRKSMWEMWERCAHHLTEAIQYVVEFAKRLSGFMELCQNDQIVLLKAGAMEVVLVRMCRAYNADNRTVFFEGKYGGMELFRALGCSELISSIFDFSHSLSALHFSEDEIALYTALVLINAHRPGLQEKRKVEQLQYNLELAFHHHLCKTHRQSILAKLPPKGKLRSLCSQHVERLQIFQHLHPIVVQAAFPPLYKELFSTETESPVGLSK
smiles,measurement,setting,value
CC1(C(=O)O)CC=C(c2nn(C(=O)c3c(Cl)cccc3C(F)(F)F)c3cccc(F)c23)CC1 (centres unmarked) [MRL-673],weaker potency relative to MRL-367,RORγt-LBD [1]; in both the biochemical and cellular assays,10 fold
same,IC50,"RORγt-LBD [1]; mean±s.d., read-out: SRC1 Cofactor FRET IC50",21.8 ± 6.7 nM
same,IC50,RORγt-LBD [2],26.4 ± 13 nM
same,IC50,RORγt-GAL4,279 ± 137 nM
same,IC50,[3],142 ± 64 nM
